Test results from article PMC8886686 (Journal of Inorganic Biochemistry, 2022).

How the values were obtained:
SARS-CoV-2 PLpro [1] = molecular target: T1, SARS-CoV-2 PLpro (Severe acute respiratory syndrome coronavirus 2, UniProt P0DTD1); assay type: binding
SARS-CoV-2 PLpro [2] = molecular target: T1, SARS-CoV-2 PLpro; assay type: biochemical; settings: 1 μM PLpro
SARS-CoV-2 3CLpro [3] = molecular target: T2, SARS-CoV-2 3CLpro (Severe acute respiratory syndrome coronavirus 2, UniProt P0DTD1); assay type: biochemical
SARS-CoV-2 PLpro [4] = molecular target: T1, SARS-CoV-2 PLpro; assay type: binding; settings: 50 μM metal ion
SARS-CoV-2 WT-PLpro = SARS-CoV-2 WT-PLpro (Severe acute respiratory syndrome coronavirus 2, UniProt P0DTD1); experiment: Zn2+ content determination by ICP-MS, PLpro; assay type: binding
SARS-CoV-2 PLpro [5] = molecular target: T1, SARS-CoV-2 PLpro; experiment: PLpro deubiquitination assay with ubiquitin-AMC substrate; assay type: biochemical
SARS-CoV-2 WT-3CLpro = SARS-CoV-2 WT-3CLpro (Severe acute respiratory syndrome coronavirus 2, UniProt P0DTD1); experiment: Zn2+ content determination by ICP-MS, 3CLpro; assay type: binding
SARS-CoV-2 3CLpro [6] = molecular target: T2, SARS-CoV-2 3CLpro; assay type: binding
SARS-CoV-2 3CLpro [7] = molecular target: T2, SARS-CoV-2 3CLpro; assay type: binding; settings: 50 μM metal ion

O=C([O-])[C@H](O)[C@@H](O)[C@H](O)[C@H](O)CO.O=C([O-])[C@H](O)[C@@H](O)[C@H](O)[C@H](O)CO.[Zn+2] [Zn^2+, zinc gluconate]
Zn2+ bound to PLpro (ITC stoichiometry) (SARS-CoV-2 PLpro [1]): 1.23 ± 0.01 eq. | Kd (SARS-CoV-2 PLpro [1]; read-out: dissociation constant (KD), PLpro): 2170 ± 360 nM | inhibition of the proteolytic activity of PLpro (SARS-CoV-2 PLpro [2]; 50 μM metal ion): 98% | IC50 (SARS-CoV-2 PLpro [2]; read-out: IC50, PLpro activity, 20 μM peptide substrate): 530 ± 40 nM | inhibition of the proteolytic activity of 3CLpro (SARS-CoV-2 3CLpro [3]; 50 μM metal ion, 0.5 μM 3CLpro): 97.6% | IC50 (SARS-CoV-2 3CLpro [3]; read-out: IC50, 3CLpro activity, 0.5 μM WT-3CLpro, 10 μM substrate): 540 ± 40 nM | effect on melting temperature of PLpro (SARS-CoV-2 PLpro [4]): most potent metal ion to decrease the melting temperatures | Zn2+ binding capacity per PLpro monomer (ICP-MS) (SARS-CoV-2 WT-PLpro): 1.90 ± 0.01 eq. | inhibition of PLpro deubiquitination activity (SARS-CoV-2 PLpro [5]): 95.7% | Zn2+ binding capacity of 3CLpro monomer (ICP-MS) (SARS-CoV-2 WT-3CLpro): 1.24 ± 0.01 eq. | Zn2+ bound to 3CLpro monomer (ITC stoichiometry) (SARS-CoV-2 3CLpro [6]): 0.79 ± 0.01 eq. | Kd (SARS-CoV-2 3CLpro [6]; read-out: dissociation constant (KD), 3CLpro (monomer)): 4080 ± 660 nM | effect on melting temperature of 3CLpro (SARS-CoV-2 3CLpro [7]): most potent metal ion to decrease the melting temperatures
